{"source": "patent US20070213301A1", "about": "(ACHILLION PHARMACEUTICALS, INC., priority 2006, published 2007)", "data": [{"tested_on": "HCV replicon", "experiment": "HCV replicon replication assay (NPTII ELISA)", "assay_type": "cell-based, Hepatitis C virus (Huh-7 cells)", "details": "Hepatitis C virus, Huh-7, 72 h, inhibition of HCV replicon replication in Huh-7 HCV replicon-containing cells, three days incubation, NPT level by ELISA; read-out: EC50", "procedure": "Compounds claimed herein are tested for the ability to inhibit viral replication of the Hepatitis C replicon in cultured cells in which the HCV replicon construct has been incorporated. The HCV replicon system was described by Bartenschlager, et. al (Science, 285, pp. 110-113 (1999)). The replicon system is predictive of in vivo anti-HCV activity; compounds that are active in humans uniformly evidence activity in the replicon assay.\nIn this assay HCV replicon containing cells are treated with different concentrations of the test compound to ascertain the ability of the test compound to suppress replication of the HCV replicon. As a positive control, HCV replicon-containing cells are treated with different concentrations of interferon alpha, a known inhibitor of HCV replication. The replicon assay system includes Neomycin Phosphotransferase (NPT) as a component of the replicon itself in order to detect the transcription of replicon gene products in the host cell. Cells in which the HCV replicon is actively replicating have high levels of NPT; the level of NPT is proportional to HCV replication. […] The NPT level of each sample is measured using a captured ELISA.\nThe HCV replicon contains, 5′-3′, the HCV-IRES, the neomycin phosphotransferase (neo) gene, the IRES of encephalomyocarditis virus, which directs translation of HCV sequences NS3 to NS5B, and the 3′-NTR. The sequence of the HCV replicon has been deposited in GenBank (Accession no. AJ242652).\nThe replicon is transfected into Huh-7 cells using standard methods such as electroporation.\nThe cells are then seeded onto 96-well plates at a density of 6000-7500 cells/100 microliters/well (6-7.5×10^5 cells/10 ml/plate). The plates are then incubated at 37° C. in a 5% CO2 incubator.\nHCV replicon-containing cells are rinsed with once PBS once; 2 mls of trypsin are then added. Cells are incubated at 37° C. in a 5% CO2 incubator for 3-5 minutes. 10 mls of complete medium is added to stop the reaction. Cells are blown gently, put into a 15 ml tube, and spun at 1200 rpm for four minutes. The trypsin/medium solution is removed and 5 mls of medium (500 ml DMEM (high glucose)) from BRL catalog #12430-054; 50 mls 10% FBS, 5% Geneticin G418 (50 mg/ml, BRL catalog #10131-035), 5 ml MEM non-essential amino acids (100× BRL #11140-050) and 5 ml pen-strep (BRL #15140-148) is added. The cells and media are mixed carefully\nCells are plated with screening medium (500 ml DMEM (BRL #21063-029), 50 ml FBS (BRL #10082-147) and 5 ml MEM non-essential amino acid (BRL #11140-050) at 6000-7500 cells/100 μl/well of 96 well plate (6-7.5×10^5 cells/10 ml/plate). Plates are placed into 37° C. 5% CO2 incubator overnight.\nThe following morning, drugs (test compounds or interferon alpha) are diluted in 96 well U bottom plates with media or DMSO/media, depending on the final concentration chosen for screening. Generally for 6 concentrations of each test compounds ranging from 10 micromolar to 0.03 micromolar are applied. 100 μl of the test compound dilution is placed in wells of the 96 well plate containing the HCV replicon cells. Media without drug is added to some wells as a negative controls. DMSO is known to affect cell growth. Therefore, if drugs diluted in DMSO are used, all wells, including negative control (media only) and positive control (interferon alpha) wells, must contain the same concentration of DMSO, for single dose screening. The plates are incubated at 37° C. in a humidified 5% CO2 environment for three days.\nOn day four, the NTPII assay is quantitated. The medium is poured from the plates and the plates are washed once in 200 μl of PBS. The PBS is then decanted and the plates tapped in a paper towel to remove any remaining PBS. Cells are fixed in situ with 100 μl/well of pre-cooled (−20° C.) methanol:acetone (1:1) and the plates are placed at −20° C. for 30 minutes.\nThe fixing solution is poured from the plates and the plates allowed to air-dry completely (approximately one hour). […]", "units": {"EC50": "nM"}, "values": [{"smiles": "CCCCCOc1ccc(N(C(C)=O)c2nc(-c3ccc(F)cc3)cs2)cc1C(F)(F)F", "note": "[Compound 1, N-(4-(4-fluorophenyl)thiazol-2-yl)-N-(4-(pentyloxy)-3-(trifluoromethyl)phenyl)acetamide]", "EC50": "< 1000"}, {"smiles": "CCCCCOc1ccc(N(C)c2nc(-c3cccnc3)cs2)cc1C(F)(F)F", "note": "[Compound 2, N-methyl-N-(4-(pentyloxy)-3-(trifluoromethyl)phenyl)-4-(pyridin-3-yl)thiazol-2-amine]", "EC50": "< 1000"}, {"smiles": "CCCCCOc1ccc(N(C)c2nc(C(=O)O)cs2)cc1C(F)(F)F", "note": "[Compound 3, 2-(methyl(4-(pentyloxy)-3-(trifluoromethyl)phenyl)amino)thiazole-4-carboxylic acid]", "EC50": "> 10000"}, {"smiles": "CCCCCOc1ccc(N(C)c2nc(C(=O)Nc3ccc(Cl)cc3)cs2)cc1C(F)(F)F", "note": "[Compound 4, N-(4-chlorophenyl)-2-(methyl(4-(pentyloxy)-3-(trifluoromethyl)phenyl)amino)thiazole-4-carboxamide]", "EC50": "1000 to 10000"}, {"smiles": "CCCCCOc1ccc(N(C)c2nc(C(=O)Nc3ccc(C#N)cc3)cs2)cc1C(F)(F)F", "note": "[Compound 5, N-(4-cyanophenyl)-2-(methyl(4-(pentyloxy)-3-(trifluoromethyl)phenyl)amino)thiazole-4-carboxamide]", "EC50": "> 10000"}, {"smiles": "CCCCCOc1ccc(N(C)c2nc(C(=O)Nc3cccnc3)cs2)cc1C(F)(F)F", "note": "[Compound 6, 2-(methyl(4-(pentyloxy)-3-(trifluoromethyl)phenyl)amino)-N-(pyridin-3-yl)thiazole-4-carboxamide]", "EC50": "1000 to 10000"}, {"smiles": "CCCCCOc1ccc(N(C(C)=O)c2nc(C(=O)Nc3cccnc3)cs2)cc1C(F)(F)F", "note": "[Compound 7, 2-(N-(4-(pentyloxy)-3-(trifluoromethyl)phenyl)acetamido)-N-(pyridin-3-yl)thiazole-4-carboxamide]", "EC50": "1000 to 10000"}, {"smiles": "CCCCCOc1ccc(N(C)c2nc(-c3ccc(CN4CCOCC4)nc3)cs2)cc1C(F)(F)F", "note": "[Compound 8, N-methyl-4-(6-(morpholinomethyl)pyridin-3-yl)-N-(4-(pentyloxy)-3-(trifluoromethyl)phenyl)thiazol-2-amine]", "EC50": "1000 to 10000"}, {"smiles": "CCCCCOc1ccc(N(CC(=O)N(CC)CC)c2nc(-c3cccnc3)cs2)cc1C(F)(F)F", "note": "[Compound 9, N,N-diethyl-2-((4-(pentyloxy)-3-(trifluoromethyl)phenyl)(4-(pyridin-3-yl)thiazol-2-yl)amino)acetamide]", "EC50": "> 10000"}, {"smiles": "CCCCCOc1ccc(N(C)c2nc(-c3ccc(CN4CCN(C)CC4)nc3)cs2)cc1C(F)(F)F", "note": "[Compound 10, N-methyl-4-(6-((4-methylpiperazin-1-yl)methyl)pyridin-3-yl)-N-(4-(pentyloxy)-3-(trifluoromethyl)phenyl)thiazol-2-amine]", "EC50": "< 1000"}, {"smiles": "CCCCCOc1ccc(N(CCN(C)C)c2nc(-c3cccnc3)cs2)cc1C(F)(F)F", "note": "[Compound 11, N1,N1-dimethyl-N2-(4-(pentyloxy)-3-(trifluoromethyl)phenyl)-N2-(4-(pyridin-3-yl)thiazol-2-yl)ethane-1,2-diamine]", "EC50": "1000 to 10000"}, {"smiles": "CCCCCOc1ccc(N(C(C)=O)c2nc(-c3cccnc3)cs2)cc1C(F)(F)F", "note": "[Compound 12, N-(4-(pentyloxy)-3-(trifluoromethyl)phenyl)-N-(4-(pyridin-3-yl)thiazol-2-yl)acetamide]", "EC50": "< 1000"}, {"smiles": "CCCCCOc1ccc(N(C(=O)C2CC2)c2nc(-c3ccc(C(=O)N(C)C)cn3)cs2)cc1C(F)(F)F", "note": "[Compound 13, N,N-dimethyl-6-(2-(N-(4-(pentyloxy)-3-(trifluoromethyl)phenyl)cyclopropane-carboxamido)thiazol-4-yl)nicotinamide]", "EC50": "> 10000"}, {"smiles": "CCCCCOc1ccc(N(C(=O)C(C)C)c2nc(-c3cccnc3)cs2)cc1C(F)(F)F", "note": "[Compound 14, N-(4-(pentyloxy)-3-(trifluoromethyl)phenyl)-N-(4-(pyridin-3-yl)thiazol-2-yl)isobutyramide]", "EC50": "< 1000"}, {"smiles": "CCCCCOc1ccc(N(C(=O)C2CC2)c2nc(-c3cccnc3)cs2)cc1C(F)(F)F", "note": "[Compound 15, N-(4-(pentyloxy)-3-(trifluoromethyl)phenyl)-N-(4-(pyridin-3-yl)thiazol-2-yl)cyclopropanecarboxamide]", "EC50": "< 1000"}, {"smiles": "CCCCCOc1ccc(N(C(C)=O)c2nc(-c3ccc(CN(C)C)nc3)cs2)cc1C(F)(F)F", "note": "[Compound 16, N-(4-(6-((dimethylamino)methyl)pyridin-3-yl)thiazol-2-yl)-N-(4-(pentyloxy)-3-(trifluoromethyl)phenyl)acetamide]", "EC50": "1000 to 10000"}, {"smiles": "CCCCCOc1ccc(N(C(=O)C2CC2)c2nc(-c3ccc(CN(C)C)nc3)cs2)cc1C(F)(F)F", "note": "[Compound 17, N-(4-(6-((dimethylamino)methyl)pyridin-3-yl)thiazol-2-yl)-N-(4-(pentyloxy)-3-(trifluoromethyl)phenyl)cyclopropane-carboxamide]", "EC50": "1000 to 10000"}, {"smiles": "CCCCCOc1ccc(N(C(=O)C(C)C)c2nc(-c3ccc(CN(C)C)nc3)cs2)cc1C(F)(F)F", "note": "[Compound 19, N-(4-(6-((dimethylamino)methyl)pyridin-3-yl)thiazol-2-yl)-N-(4-(pentyloxy)-3-(trifluoromethyl)phenyl)isobutyramide]", "EC50": "1000 to 10000"}, {"smiles": "CCCCCOc1ccc(N(C(C)=O)c2nc(CN(C)C)cs2)cc1C(F)(F)F", "note": "[Compound 20, N-(4-((dimethylamino)methyl)thiazol-2-yl)-N-(4-(pentyloxy)-3-(trifluoromethyl)phenyl)acetamide]", "EC50": "1000 to 10000"}, {"smiles": "CCCCCOc1ccc(N(C(=O)C(C)C)c2nc(CN(C)C)cs2)cc1C(F)(F)F", "note": "[Compound 21, N-(4-((dimethylamino)methyl)thiazol-2-yl)-N-(4-(pentyloxy)-3-(trifluoromethyl)phenyl)isobutyramide]", "EC50": "1000 to 10000"}, {"smiles": "CCCCCOc1ccc(N(C(=O)C2CC2)c2nc(CN(C)C)cs2)cc1C(F)(F)F", "note": "[Compound 22, N-(4-((dimethylamino)methyl)thiazol-2-yl)-N-(4-(pentyloxy)-3-(trifluoromethyl)phenyl)cyclopropane-carboxamide]", "EC50": "1000 to 10000"}, {"smiles": "CCCCCOc1ccc(N(C(=O)C(=O)OC)c2nc(CN(C)C)cs2)cc1C(F)(F)F", "note": "[Compound 23, methyl 2-((4-((dimethylamino)methyl)thiazol-2-yl)(4-(pentyloxy)-3-(trifluoromethyl)phenyl)amino)-2-oxoacetate]", "EC50": "1000 to 10000"}, {"smiles": "CCCCCOc1ccc(N(C(C)=O)c2nc(-c3cccnc3)cs2)cc1F", "note": "[Compound 24, N-(3-fluoro-4-(pentyloxy)phenyl)-N-(4-(pyridin-3-yl)thiazol-2-yl)acetamide]", "EC50": "< 1000"}, {"smiles": "CCCCCOc1ccc(N(C(=O)C(C)C)c2nc(-c3cccnc3)cs2)cc1F", "note": "[Compound 25, N-(3-fluoro-4-(pentyloxy)phenyl)-N-(4-(pyridin-3-yl)thiazol-2-yl)isobutyramide]", "EC50": "< 1000"}, {"smiles": "CCCCCOc1ccc(N(C(=O)C2CC2)c2nc(-c3cccnc3)cs2)cc1F", "note": "[Compound 26, N-(3-fluoro-4-(pentyloxy)phenyl)-N-(4-(pyridin-3-yl)thiazol-2-yl)cyclopropanecarboxamide]", "EC50": "< 1000"}, {"smiles": "CCCCCOc1ccc(N(C(=O)C(=O)OC)c2nc(-c3cccnc3)cs2)cc1F", "note": "[Compound 27, methyl 2-((3-fluoro-4-(pentyloxy)phenyl)(4-(pyridin-3-yl)thiazol-2-yl)amino)-2-oxoacetate]", "EC50": "< 1000"}]}]}
